Experimental data taken from patent publication US20050271588A1, “Liposome targeting of matrix metalloproteinase inhibitors” (priority 2001, published 2005).
Positions of bridges follow the written chain, without caps; N, C: chain ends. Residues, ends and D or L forms follow the SMILES beside them.

Columns and labels:
[1] = Trp fluorescence emission anisotropy with liposomes; format: physicochemical; settings: 37° C.
Procedure: Fluorescence polarization of the Trp residue of CTT as a function of increasing concentration of liposomes was measured using rotating polarizers in the excitation and emission beams, with a bandpass of 10 nm. The results are expressed as emission anisotropy (Lakowicz, 1999) calculated as follows: r=(I∥−I⊥)/(I∥+2I⊥). In this equation I⊥ and I∥ represent the emission intensity perpendicular and parallel, respectively, to the excitation polarizer.

U937 leukemia cells = experiment: Association of DPPRho-labelled liposomes with cells; format: cell-based; settings: U937, 5 min
Procedure: Assays for liposome uptake by cells. In order to study the effects of the different peptides on the cellular uptake of liposomes, rhodamine-labelled phospholipid analog (DPPRho) was incorporated into liposomes as a tracer, to yield a composition POPC/POPE/DPPRho (80:19:1, mol/mol). The indicated peptides were mixed with LUVs and subsequently added to cells cultured in microtiter well plates. After an incubation for 5 min at 38° C. liposomes not bound to the cells were removed by rinsing the cells three times with cold PBS. The relative amount of DPPRho associated with the cells was determined using Tecan Spectrafluor Plus microplate reader (Tecan, Hombrechtigon, Switzerland) with excitation at 535 nm and emission at 595 nm.

Trp emission anisotropy r ([1]; 230 μM phospholipid, CTT 5 μM): 0.349
Trp emission anisotropy r ([1]; absence of liposomes, CTT 5 μM in PBS): 0.065
Compound: CC(C)C[C@@H]1NC(=O)[C@H]([C@@H](C)O)NC(=O)[C@H](Cc2ccccc2)NC(=O)CNC(=O)[C@H](Cc2c[nH]c3ccccc23)NC(=O)[C@H](Cc2c[nH]cn2)NC(=O)[C@H]([C@@H](C)O)NC(=O)[C@H]([C@@H](C)O)NC(=O)[C@@H](N)CSSC[C@@H](C(=O)O)NC1=O [CTT] (H-CTTHWGFTLC-OH; disulfide 1-10; N-terminus and C-terminus assumed)
Increase of DPPRho marker bound to cells with peptide vs without (U937 leukemia cells): approx. 3.7 fold
